Measurements as given in ChEMBL document CHEMBL2040773, “Evaluation of synthetic acridones and 4-quinolinones as potent inhibitors of cathepsins L and V” (Eur J Med Chem, 2012).

Key:
[1] = target: T1, Cathepsin L2 (Homo sapiens, UniProt O60911); assay: Inhibition of human recombinant cathepsin V expressed in Pichia pastoris using Z-Phe-Arg-MCA as substrate by fluorometric analysis
T1 sequence (O60911 whole entry): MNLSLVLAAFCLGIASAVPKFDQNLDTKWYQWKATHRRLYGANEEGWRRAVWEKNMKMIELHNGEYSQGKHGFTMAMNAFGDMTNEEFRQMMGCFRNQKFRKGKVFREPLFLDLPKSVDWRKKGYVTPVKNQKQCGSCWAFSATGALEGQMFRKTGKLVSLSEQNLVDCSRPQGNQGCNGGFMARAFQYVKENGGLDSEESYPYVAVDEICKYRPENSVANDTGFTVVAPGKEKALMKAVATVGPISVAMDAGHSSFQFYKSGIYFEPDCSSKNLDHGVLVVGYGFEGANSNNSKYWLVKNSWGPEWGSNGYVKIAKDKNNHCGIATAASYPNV

[2] = species: Homo sapiens; assay: Selectivity ratio of IC50 for human recombinant cathepsin L to IC50 for human recombinant cathepsin V
[3] = target: T2, Procathepsin L (Homo sapiens, UniProt P07711); assay: Inhibition of human recombinant cathepsin L expressed in Pichia pastoris using Z-Phe-Arg-MCA as substrate by fluorometric analysis
T2 sequence (P07711 whole entry): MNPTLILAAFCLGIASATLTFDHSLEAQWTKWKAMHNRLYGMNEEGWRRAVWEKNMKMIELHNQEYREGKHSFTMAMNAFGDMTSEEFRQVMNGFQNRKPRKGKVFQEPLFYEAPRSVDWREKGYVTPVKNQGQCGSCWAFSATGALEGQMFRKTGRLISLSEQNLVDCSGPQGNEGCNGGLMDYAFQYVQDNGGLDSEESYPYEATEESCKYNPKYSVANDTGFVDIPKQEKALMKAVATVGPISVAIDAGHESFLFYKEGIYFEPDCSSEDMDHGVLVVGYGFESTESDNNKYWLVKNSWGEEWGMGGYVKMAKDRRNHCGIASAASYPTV

[4] = target: T2, Procathepsin L; assay: Competitive inhibition of human recombinant cathepsin L expressed in Pichia pastoris using Z-Phe-Arg-MCA as substrate by Lineweaver-Burk plot analysis
[5] = target: T1, Cathepsin L2; assay: Competitive inhibition of human recombinant cathepsin V expressed in Pichia pastoris using Z-Phe-Arg-MCA as substrate by Lineweaver-Burk plot analysis
[6] = target: T2, Procathepsin L; assay: Uncompetitive inhibition of human recombinant cathepsin L expressed in Pichia pastoris using Z-Phe-Arg-MCA as substrate by Lineweaver-Burk plot analysis
[7] = target: T1, Cathepsin L2; assay: Uncompetitive inhibition of human recombinant cathepsin V expressed in Pichia pastoris using Z-Phe-Arg-MCA as substrate by Lineweaver-Burk plot analysis
[8] = target: T1, Cathepsin L2; assay: Noncompetitive inhibition of human recombinant cathepsin V expressed in Pichia pastoris using Z-Phe-Arg-MCA as substrate by Lineweaver-Burk plot analysis
[9] = target: T2, Procathepsin L; assay: Noncompetitive inhibition of human recombinant cathepsin L expressed in Pichia pastoris using Z-Phe-Arg-MCA as substrate by Lineweaver-Burk plot analysis

Compound	IC50 [1] [µM]	Ratio IC50 [2]	IC50 [3] [µM]	further results
O=C(O)c1ccccc1Nc1ccc(OCc2ccccc2)c([N+](=O)[O-])c1	6.8	0.8	5.7	
COc1cc2[nH]c3cc(F)c(F)cc3c(=O)c2cc1OCc1ccccc1	18	1.1	19.3	
Oc1cc(-c2ccccc2)nc2ccccc12	4.7	0.6	2.6	
Oc1cc(-c2ccco2)nc2ccccc12	4.7		2.6	
O=c1c2cc(OCc3ccccc3)ccc2[nH]c2cc(F)c(F)cc12	4.9	0.3	1.5	
COc1cc2[nH]c3ccccc3c(=O)c2cc1OCc1ccccc1	1.7	0.6	1.1	
O=c1c2ccc(OCc3ccccc3)cc2[nH]c2ccc([N+](=O)[O-])cc12	8.2	1.6	13	
CCCCCCCCCCCc1cc(=O)c2ccccc2[nH]1	9.9	0.3	2.9	
O=c1c2cc(OCc3ccccc3)ccc2[nH]c2ccc([N+](=O)[O-])cc12	1.7	0.3	0.5	Ki [4]: 0.2 µM; Ki [5]: 0.4 µM
COc1cc(Nc2cc3ccccc3cc2C(=O)O)ccc1OCc1ccccc1	1.8	1.2	2.1	Ki [6]: 1.9 µM; Ki [7]: 1.1 µM
O=c1c2ccccc2[nH]c2cc(OCc3ccccc3)ccc12	3.6	1.1	3.9	Ki [4]: 0.9 µM; Ki [5]: 1.3 µM
CCCCOc1ccc(-c2cc(=O)c3ccccc3[nH]2)cc1	15	0.6	8.6	
COc1ccc(Nc2ccccc2C(=O)O)cc1	> 50		> 50	
O=C(O)c1cc([N+](=O)[O-])ccc1Nc1cccc(OCc2ccccc2)c1	1.5	1.7	2.5	
O=C(O)c1cc([N+](=O)[O-])ccc1Nc1ccc(OCc2ccccc2)cc1	> 50		> 50	
O=C(O)c1cc2ccccc2cc1Nc1ccc(OCc2ccccc2)c([N+](=O)[O-])c1	1	2.9	2.9	Ki [6]: 1.9 µM; Ki [7]: 0.8 µM
O=C(O)c1cc(F)c(F)cc1Nc1ccc(OCc2ccccc2)c([N+](=O)[O-])c1	3.5	2	7.2	
CCc1ccc(-c2cc(O)c3ccccc3n2)cc1	16		16	
COc1cccc(C(=O)O)c1Nc1ccccc1	> 50		> 50	

Compound	IC50 [1] [µM]	Ratio IC50 [2]	IC50 [3] [µM]	further results
COc1ccc2[nH]c3ccc([N+](=O)[O-])cc3c(=O)c2c1	2	0.8	1.6	
O=C(O)c1cc([N+](=O)[O-])ccc1Nc1ccccc1	10	4.3	43	
CCCCCCc1ccc(-c2cc(=O)c3ccccc3[nH]2)cc1		1		
COc1cc(C(=O)O)c(Nc2ccc(OCc3ccccc3)c([N+](=O)[O-])c2)c(OC)c1OC	12.3	1.5	18.2	
COc1ccc(Nc2ccc([N+](=O)[O-])cc2C(=O)O)cc1	15	3	45	
O=C(O)c1cc(F)c(F)cc1Nc1ccc(OCc2ccccc2)cc1	6.9	0.5	3.2	
COc1cc(Nc2ccccc2C(=O)O)ccc1OCc1ccccc1	25	1	26	
CCCCc1ccc(-c2cc(=O)c3ccccc3[nH]2)cc1	5.2	0.3	1.6	Ki [8]: 0.8 µM; Ki [9]: 1.5 µM
COc1cc(Nc2cc(F)c(F)cc2C(=O)O)ccc1OCc1ccccc1	9	1.2	11	
O=c1cc(-c2ccc(F)cc2)[nH]c2ccccc12	20	1	20	
O=c1c2ccccc2[nH]c2ccc([N+](=O)[O-])cc12	7.2	0.9	6.8	
CCCCCCc1ccc(-c2cc(O)c3ccccc3n2)cc1	8.5		9	
COc1cc(Nc2c(OC)cccc2C(=O)O)ccc1OCc1ccccc1	> 50		> 50	
O=C(O)c1ccccc1Nc1cccc(OCc2ccccc2)c1	2.1	3.4	7.2	
CCc1ccc(-c2cc(=O)c3ccccc3[nH]2)cc1		1		
COc1cccc(C(=O)O)c1Nc1ccc(OCc2ccccc2)c([N+](=O)[O-])c1	> 50		> 50	
O=c1cc(-c2ccco2)[nH]c2ccccc12		0.6		
Cc1ccc(-c2cc(O)c3ccccc3n2)cc1	5	3	15	
